Experimental findings from article PMC7931429 (ACS Omega, 2021) are described below.

For assay [1], the target named is T1, CHIKV nsP2 (Chikungunya virus, UniProt Q8JUX6).
T1 sequence (Q8JUX6 536-1333 limits assumed): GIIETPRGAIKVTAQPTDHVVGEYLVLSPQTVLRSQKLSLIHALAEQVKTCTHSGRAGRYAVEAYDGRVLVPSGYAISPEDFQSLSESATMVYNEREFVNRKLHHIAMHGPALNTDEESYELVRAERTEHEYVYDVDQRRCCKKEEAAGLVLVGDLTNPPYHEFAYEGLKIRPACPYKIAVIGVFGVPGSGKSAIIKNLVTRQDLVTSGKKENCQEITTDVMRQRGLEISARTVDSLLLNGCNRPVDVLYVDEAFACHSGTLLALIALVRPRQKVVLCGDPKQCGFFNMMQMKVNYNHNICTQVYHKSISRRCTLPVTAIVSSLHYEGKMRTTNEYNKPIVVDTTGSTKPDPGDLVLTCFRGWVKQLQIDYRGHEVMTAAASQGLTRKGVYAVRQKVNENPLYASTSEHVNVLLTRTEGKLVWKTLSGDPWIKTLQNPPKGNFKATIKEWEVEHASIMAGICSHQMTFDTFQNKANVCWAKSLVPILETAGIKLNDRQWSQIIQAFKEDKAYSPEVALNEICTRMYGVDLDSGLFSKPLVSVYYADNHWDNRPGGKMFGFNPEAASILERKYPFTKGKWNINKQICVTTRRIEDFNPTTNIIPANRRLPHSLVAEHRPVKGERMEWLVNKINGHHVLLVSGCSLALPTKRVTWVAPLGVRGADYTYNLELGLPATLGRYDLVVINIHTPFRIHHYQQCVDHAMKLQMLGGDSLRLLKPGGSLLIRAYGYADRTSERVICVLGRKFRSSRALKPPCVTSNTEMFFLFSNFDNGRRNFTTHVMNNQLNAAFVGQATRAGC
Description: Cell-free protease inhibition assay with recombinant CHIKV nsP2. The format is biochemical. Conditions: inhibitor 1 mM, nsP2 1.4 μM, substrate 6 μM, 30 °C, 1.5 h.

For assay [2], the system named is CHIKV-NanoLuc. The assay is described as follows: Antiviral activity against CHIKV-NanoLuc in RPE cells. The format is cell-based. Conditions: Chikungunya virus, 48 h, read-out: IC50 in RPE cells.
Assay [3] has as its system CHIKV-NanoLuc. The format is cell-based, Chikungunya virus. The conditions noted are these: BHK-21 cells, MOI 10, 6 h post infection, concentration 10 times higher than IC50.

For `O=C(Nc1ncc([N+](=O)[O-])s1)c1cc(Cl)ccc1Cl` [Compound 10c, 2,5-dichloro-N-(5-nitro-1,3-thiazol-2-yl)benzamide], in assay [1], the “Effect on protease activity of nsP2 (amount of cleavage product)” value (“Effect on protease activity of nsP2” for short) was “smaller inhibitory effect than compound 10”. For the compound `O=C(Nc1ncc([N+](=O)[O-])s1)c1ccccc1O` [Compound 10, 2-hydroxy-N-(5-nitro-1,3-thiazol-2-yl)benzamide], the “Effect on protease activity of nsP2” value in assay [1] was “strongest inhibitory effect”. In addition, the half-maximal inhibitory concentration (IC50) in assay [2] turned out to be 7.3 µM. Also, in assay [3], the “Virus replication (ns-protein and capsid protein expression) by western blot” value is recorded as “completely inhibited”.

For the compound `O=C(Nc1ncc([N+](=O)[O-])s1)c1cccc(Cl)c1` [Compound 10b, 3-chloro-N-(5-nitro-1,3-thiazol-2-yl)benzamide], in assay [1], the “Effect on protease activity of nsP2” value is “smaller inhibitory effect than compound 10”.

Consider “(5Z)-3-ethyl-5-(naphthalen-1-ylmethylidene)-2-sulfanylidene-1,3-oxazolidin-4-one [Compound 1]”, for which, in assay [1], the “Effect on protease activity of nsP2” value is on record as “no effect”.

A word on the IC50: it is the point on the concentration scale where inhibition reaches its midpoint.
